# Experimental data taken from US5580871A, “4-Heteroaryl- 1,4-dihydropyridine compounds with calcium agonist and alpha1 -antagonist activity” (The Dupont Merck Pharmaceutical Company, priority 1995, dated 1996).
# Experiments:
# [1] = system: influx of calcium ions into cells; details: background, cited from earlier work
# guinea pig left atria = assay: Positive inotropic effect in guinea pig left atria; details: Cavia porcellus; for EC50: concentration that increases developed tension (DT) by 50% above the control DT, left atria paced at 2 Hz, 37° C.; for Emax: ratio of the maximum effect of the test compound to that of Bay K8644, read-out: Intrinsic Activity
# Procedure: Guinea pigs are killed by cervical dislocation. The left atria are removed and mounted at 1 gm resting tension in tissue baths containing oxygenated Krebs bicarbonate solution which is kept at 37° C. The left atria are electrically paced at 2 Hz with square wave pulses of 1 msec duration. The voltage is set at 1.5×threshold level.
# After a one hour equilibration period, control values for developed tension (DT, gm) are recorded. Test compounds are then added to the baths, in a cumulative manner to a maximum concentration of 10^-4, to obtain a concentration-response curve. Treatment values of DT are obtained after the drug effect has reached a plateau and the exposure time for each concentration is 5-8 minutes. Percent change of the treatment value from the control value is calculated at each concentration of the test compound.
# alpha1-adrenoceptor = assay: [3H]-Prazosin binding assay (affinity for alpha1-adrenoceptors); details: partially purified rat brain membranes; 0.2 nM [3H]-prazosin, 60 min, 25° C.
# Procedure: The [^3 H]-prazosin binding assay was carried out according to the method described by Timmermans, P. B. M. W. M., Schoop, A. M. C., and Van Zwieten, P. A., Biochem. Pharmacol., 31, 899-905, (1982). The reaction mixture contained partially purified rat brain membranes (source of alpha1 -adrenoceptors), 0.2 nM [^3 H]-prazosin with or without potential displacer in Tris buffer. The mixture was incubated for 60 minutes at 25° C. and subsequently terminated by rapid filtration through glass fiber-filter. Receptor-bound [^3 H]-prazosin trapped in the filter was quantitated by scintillation counting. The inhibitory concentration (IC50) of potential displacer which gives 50% displacement of the total specifically bound [^3 H]-prazosin is presented as a measure of the affinity of such compound for the alpha1 -adrenoceptor.
# Ca^2+ channel = molecular target: T1, Ca^2+ channel (Rattus norvegicus, UniProt P22002); assay: [3H]-Nitrendipine binding assay (affinity for calcium channels); details: rat cardiac microsomes; 0.5 nM [3H]-nitrendipine, 60 min, 25° C.
# T1 construct: rat cardiac microsomes (source of Ca^2+ channels); from tissue; host or cells: rat cardiac microsomes
# T1 sequence (P22002 whole entry, other chains not shown): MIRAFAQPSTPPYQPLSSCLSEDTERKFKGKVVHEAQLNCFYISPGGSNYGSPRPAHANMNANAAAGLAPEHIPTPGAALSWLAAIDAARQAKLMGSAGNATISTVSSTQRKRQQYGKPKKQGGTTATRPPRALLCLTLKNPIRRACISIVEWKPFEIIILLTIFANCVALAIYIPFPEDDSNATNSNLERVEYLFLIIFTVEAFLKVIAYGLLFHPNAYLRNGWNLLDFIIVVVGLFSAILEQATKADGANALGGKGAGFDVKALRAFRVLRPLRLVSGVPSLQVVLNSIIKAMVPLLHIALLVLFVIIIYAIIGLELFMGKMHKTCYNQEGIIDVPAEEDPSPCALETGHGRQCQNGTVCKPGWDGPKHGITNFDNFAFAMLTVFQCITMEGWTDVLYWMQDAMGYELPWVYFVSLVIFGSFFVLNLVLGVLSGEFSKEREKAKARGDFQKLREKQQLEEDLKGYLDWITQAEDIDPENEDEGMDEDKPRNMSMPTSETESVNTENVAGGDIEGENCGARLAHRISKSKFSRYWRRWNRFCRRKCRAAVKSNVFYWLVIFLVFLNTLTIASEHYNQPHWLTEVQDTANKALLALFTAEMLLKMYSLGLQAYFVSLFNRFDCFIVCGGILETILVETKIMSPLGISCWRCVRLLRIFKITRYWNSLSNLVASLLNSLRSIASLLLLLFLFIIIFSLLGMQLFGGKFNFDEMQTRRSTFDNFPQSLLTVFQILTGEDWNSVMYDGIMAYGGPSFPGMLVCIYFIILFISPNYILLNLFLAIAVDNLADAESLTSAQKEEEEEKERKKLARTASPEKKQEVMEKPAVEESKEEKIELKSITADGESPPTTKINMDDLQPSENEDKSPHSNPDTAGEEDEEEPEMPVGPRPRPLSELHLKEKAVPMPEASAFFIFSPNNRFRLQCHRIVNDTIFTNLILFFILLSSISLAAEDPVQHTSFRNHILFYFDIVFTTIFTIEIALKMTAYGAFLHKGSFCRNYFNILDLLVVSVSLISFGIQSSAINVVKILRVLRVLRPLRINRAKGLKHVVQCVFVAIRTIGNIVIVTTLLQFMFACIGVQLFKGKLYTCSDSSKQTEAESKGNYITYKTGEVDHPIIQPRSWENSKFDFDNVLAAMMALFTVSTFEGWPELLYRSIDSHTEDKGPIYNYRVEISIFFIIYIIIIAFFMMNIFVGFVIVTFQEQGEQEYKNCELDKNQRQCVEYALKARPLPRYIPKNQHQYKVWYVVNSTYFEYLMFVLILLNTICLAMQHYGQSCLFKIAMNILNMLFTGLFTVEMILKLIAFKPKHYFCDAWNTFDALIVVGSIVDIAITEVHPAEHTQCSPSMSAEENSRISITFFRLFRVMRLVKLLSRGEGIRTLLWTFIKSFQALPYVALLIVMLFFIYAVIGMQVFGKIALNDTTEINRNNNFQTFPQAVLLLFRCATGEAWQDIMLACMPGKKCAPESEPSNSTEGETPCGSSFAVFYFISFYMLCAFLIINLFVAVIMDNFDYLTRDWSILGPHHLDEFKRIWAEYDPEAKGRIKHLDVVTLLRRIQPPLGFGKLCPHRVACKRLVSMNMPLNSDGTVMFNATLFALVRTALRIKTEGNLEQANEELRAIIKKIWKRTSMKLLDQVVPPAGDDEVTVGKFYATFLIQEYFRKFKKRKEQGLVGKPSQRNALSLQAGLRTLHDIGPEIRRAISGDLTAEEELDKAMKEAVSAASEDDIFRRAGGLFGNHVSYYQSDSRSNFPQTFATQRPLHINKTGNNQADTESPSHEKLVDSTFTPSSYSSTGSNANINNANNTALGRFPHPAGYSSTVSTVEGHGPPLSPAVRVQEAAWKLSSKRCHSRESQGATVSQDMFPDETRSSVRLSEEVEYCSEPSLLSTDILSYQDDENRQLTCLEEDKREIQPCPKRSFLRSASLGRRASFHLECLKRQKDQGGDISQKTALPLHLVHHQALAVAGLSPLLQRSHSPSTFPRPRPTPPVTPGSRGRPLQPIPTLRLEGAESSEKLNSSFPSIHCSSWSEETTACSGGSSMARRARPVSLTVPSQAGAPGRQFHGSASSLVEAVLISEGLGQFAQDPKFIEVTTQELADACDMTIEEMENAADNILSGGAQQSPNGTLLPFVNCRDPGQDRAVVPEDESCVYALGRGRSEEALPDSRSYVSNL
# T1 sequence (P54290 25-944 partner limits assumed, other chains not shown): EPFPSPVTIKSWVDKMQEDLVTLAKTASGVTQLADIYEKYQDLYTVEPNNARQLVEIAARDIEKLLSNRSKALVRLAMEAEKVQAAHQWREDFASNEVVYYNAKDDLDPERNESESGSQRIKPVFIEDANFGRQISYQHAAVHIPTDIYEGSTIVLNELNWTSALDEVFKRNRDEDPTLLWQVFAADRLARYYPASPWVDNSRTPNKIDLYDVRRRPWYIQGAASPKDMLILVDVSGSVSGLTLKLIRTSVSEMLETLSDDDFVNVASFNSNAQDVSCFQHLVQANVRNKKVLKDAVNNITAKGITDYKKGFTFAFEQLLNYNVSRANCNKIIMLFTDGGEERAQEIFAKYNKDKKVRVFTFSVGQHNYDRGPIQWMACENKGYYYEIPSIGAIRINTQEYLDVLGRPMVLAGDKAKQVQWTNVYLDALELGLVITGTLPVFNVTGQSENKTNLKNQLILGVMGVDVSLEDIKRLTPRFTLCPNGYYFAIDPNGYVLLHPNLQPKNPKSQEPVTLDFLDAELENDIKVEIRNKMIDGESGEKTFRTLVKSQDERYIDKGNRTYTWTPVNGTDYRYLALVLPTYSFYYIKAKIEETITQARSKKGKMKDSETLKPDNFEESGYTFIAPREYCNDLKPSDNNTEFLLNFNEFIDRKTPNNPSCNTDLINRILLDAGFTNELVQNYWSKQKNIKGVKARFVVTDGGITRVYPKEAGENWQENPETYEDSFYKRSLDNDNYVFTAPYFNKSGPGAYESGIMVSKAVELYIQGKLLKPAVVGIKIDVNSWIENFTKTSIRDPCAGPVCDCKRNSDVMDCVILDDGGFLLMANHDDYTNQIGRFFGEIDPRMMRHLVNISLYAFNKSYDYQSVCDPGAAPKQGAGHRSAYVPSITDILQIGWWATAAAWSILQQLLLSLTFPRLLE
# T1 sequence (P54290 945-1091 partner limits assumed, other chains not shown): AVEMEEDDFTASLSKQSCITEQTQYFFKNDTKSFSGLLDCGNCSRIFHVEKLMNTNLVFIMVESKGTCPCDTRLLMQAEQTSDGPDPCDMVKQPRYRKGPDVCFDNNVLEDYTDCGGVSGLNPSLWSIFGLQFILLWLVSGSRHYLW
# Procedure: [^3 H]-Nitrendipine binding assay was carried out according to the method described by G. T. Bolger, et al., Biochem. Biophys. Res. Comm., 104, 1604-1609, (1982). The reaction mixture contained rat cardiac microsomes (source of Ca^2+ channels), 0.5 nM [^3 H]-nitrendipine with or without potential displacer in Tris buffer. The mixture was incubated for 60 minutes at 25° C. and subsequently terminated by rapid filtration through a glass fiber-filter. Membrane-bound [^3 H]-nitrendipine trapped in the filter was quantitated by scintillation counting. The inhibitory concentration (IC50) of potential displacer which gives 50% displacement of the total specifically bound [^3 H]-nitrendipine is presented as a measure of the affinity of such compound for the Ca^2+ channel.
Structure (SMILES),"calcium influx, inotropic and vascular effects ([1]; literature)",potency as a calcium agonist relative to CGP 28392 ([1]; literature),coronary vasoconstriction ([1]; not useful as a cardiotonic),EC50 (guinea pig left atria),Emax (guinea pig left atria),IC50 (alpha1-adrenoceptor),IC50 (Ca^2+ channel)
COC(=O)C1=C(C)NC(C)=C([N+](=O)[O-])C1c1ccccc1C(F)(F)F (stereo not drawn) [Bay K8644],"promote an influx of calcium ions, into cells thereby producing positive inotropic and vasoconstrictor effects",more than ten times as potent as CGP 28392 as a calcium agonist,coronary vasoconstricting properties,150 nM,100%,,
"COc1ccccc1N1CCN(CCOC(=O)C2=C(C)NC(C)=C([N+](=O)[O-])C2c2ccoc2)CC1 (stereo not drawn) [Example 55, 4-(3-Furanyl)-1,4-dihydro-2,6-dimethyl-5-nitro-3-pyridinecarboxylic acid, {2-[4-(2-methoxyphenyl)-1-piperazinyl]ethyl} ester]",,,,1000 nM,169%,100 nM,5100 nM
"CC1=C(C(=O)OCCN2CCN(c3ncccn3)CC2)C(c2ccoc2)C([N+](=O)[O-])=C(C)N1 (stereo not drawn) [Example 56, 4-(3-Furanyl)-1,4-dihydro-2,6-dimethyl-5-nitro-3-pyridinecarboxylic acid, {2-[4-(2-pyrimidinyl)-1-piperazinyl]ethyl} ester]",,,,430 nM,171%,5200 nM,4300 nM
"COc1ccccc1N1CCN(CCCCOC(=O)C2=C(C)NC(C)=C([N+](=O)[O-])C2c2cccn2C)CC1 (stereo not drawn) [Example 57, 1,4-Dihydro-2,6-dimethyl-4-(1-methyl-1H-pyrrol-2-yl)-5-nitro-3-pyridinecarboxylic acid, {4-[4-(2-methoxyphenyl)1-piperazinyl]butyl} ester]",,,,2300 nM,110%,33 nM,1300 nM
"CC1=C(C(=O)OCCCCN2CCN(c3ncccn3)CC2)C(c2cccn2C)C([N+](=O)[O-])=C(C)N1 (stereo not drawn) [Example 58, 1,4-Dihydro-2,6-dimethyl-4-(1-methyl-1H-pyrrol-2-yl)-5-nitro-3-pyridinecarboxylic acid, {4-[4-(2-pyrimidinyl)-1-piperazinyl]butyl} ester]",,,,840 nM,195%,750 nM,1800 nM
COc1ccccc1N1CCN(CCOC(=O)C2=C(C)NC(C)=C([N+](=O)[O-])C2c2ccco2)CC1 (stereo not drawn) [Example 59],,,,2700 nM,98%,100 nM,1500 nM
CC1=C(C(=O)OCCN2CCN(c3ncccn3)CC2)C(c2ccco2)C([N+](=O)[O-])=C(C)N1 (stereo not drawn) [Example 60],,,,1600 nM,140%,5900 nM,2000 nM
COc1ccccc1N1CCN(CCOC(=O)C2=C(C)NC(C)=C([N+](=O)[O-])C2c2cccnc2)CC1 (stereo not drawn) [Example 61],,,,1500 nM,164%,25 nM,1300 nM
CC1=C(C(=O)OCCN2CCN(c3ncccn3)CC2)C(c2cccnc2)C([N+](=O)[O-])=C(C)N1 (stereo not drawn) [Example 62],,,,> 100000 nM,48%,> 1000 nM,3700 nM
COc1ccccc1N1CCN(CCCCOC(=O)C2=C(C)NC(C)=C([N+](=O)[O-])C2c2cccs2)CC1 (stereo not drawn) [Example 63],,,,12000 nM,75%,60 nM,2200 nM
CC1=C(C(=O)OCCCCN2CCN(c3ncccn3)CC2)C(c2cccs2)C([N+](=O)[O-])=C(C)N1 (stereo not drawn) [Example 64],,,,3400 nM,76%,1200 nM,1200 nM
"COc1ccccc1N1CCN(CCOC(=O)C2=C(C)NC(C)=C([N+](=O)[O-])C2c2ccsc2)CC1 (stereo not drawn) [Example 65, 1,4-Dihydro-2,6-dimethyl-5-nitro-4-(3-thienyl)-3-pyridinecarboxylic acid, {2-[4-(2-methoxyphenyl)-1-piperazinyl]ethyl} ester]",,,,1000 nM,225%,180 nM,860 nM
"CC1=C(C(=O)OCCN2CCN(c3ncccn3)CC2)C(c2ccsc2)C([N+](=O)[O-])=C(C)N1 (stereo not drawn) [Example 66, 1,4-Dihydro-2,6-dimethyl-5-nitro-4-(3-thienyl)-3-pyridinecarboxylic acid, {2-[4-(2-pyrimidinyl)-1-piperazinyl]ethyl} ester]",,,,850 nM,210%,6000 nM,950 nM
COc1ccccc1N1CCN(CCCCOC(=O)C2=C(C)NC(C)=C([N+](=O)[O-])C2c2ccoc2)CC1 (stereo not drawn) [Example 67],,,,24000 nM,86%,63 nM,3500 nM
"CC1=C(C(=O)OCCCCN2CCN(c3ncccn3)CC2)C(c2ccoc2)C([N+](=O)[O-])=C(C)N1 (stereo not drawn) [Example 68, 4-(3-Furanyl)-1,4-dihydro-2,6-dimethyl-5-nitro-3-pyridinecarboxylic acid, {4-[4-(2-pyrimidinyl)-1-piperazinyl]butyl} ester]",,,,3700 nM,147%,850 nM,2700 nM
COc1ccccc1N1CCN(CCCCOC(=O)C2=C(C)NC(C)=C([N+](=O)[O-])C2c2ccco2)CC1 (stereo not drawn) [Example 69],,,,62000 nM,60%,35 nM,2000 nM
"CC1=C(C(=O)OCCCCN2CCN(c3ncccn3)CC2)C(c2ccco2)C([N+](=O)[O-])=C(C)N1 (stereo not drawn) [Example 70, 4-(2-Furanyl)-1,4-dihydro-2,6-dimethyl-5-nitro-3-pyridinecarboxylic acid, {4-[4-(2-pyrimidinyl)-1-piperazinyl]butyl} ester]",,,,5000 nM,132%,840 nM,2000 nM
COc1ccccc1N1CCN(CCCCOC(=O)C2=C(C)NC(C)=C([N+](=O)[O-])C2c2ccsc2)CC1 (stereo not drawn) [Example 71],,,,,40%,78 nM,1700 nM
CC1=C(C(=O)OCCCCN2CCN(c3ncccn3)CC2)C(c2ccsc2)C([N+](=O)[O-])=C(C)N1 (stereo not drawn) [Example 72],,,,12000 nM,70%,1000 nM,1600 nM
CC1=C(C(=O)OCCN2CCN(c3ncccn3)CC2)C(c2cccs2)C([N+](=O)[O-])=C(C)N1 (stereo not drawn) [Example 73],,,,980 nM,84%,4900 nM,2400 nM
COc1ccccc1N1CCN(CCOC(=O)C2=C(C)NC(C)=C([N+](=O)[O-])C2c2cccc3nonc23)CC1 (stereo not drawn) [Example 75],,,,400 nM,82%,470 nM,85 nM
CC1=C(C(=O)OCCN2CCN(c3ncccn3)CC2)C(c2cccc3nonc23)C([N+](=O)[O-])=C(C)N1 (stereo not drawn) [Example 76],,,,56 nM,156%,17000 nM,85 nM
"COc1ccccc1N1CCN(CCOC(=O)C2=C(C)NC(C)=C([N+](=O)[O-])C2c2cccn2C)CC1 (stereo not drawn) [Example 77, 1,4-Dihydro-2,6-dimethyl-4-(1-methyl-1H-pyrrol-2-yl)-5-nitro-3-pyridinecarboxylic acid, {2-[4-(2-methoxyphenyl)-1-piperazinyl]ethyl} ester]",,,,230 nM,240%,110 nM,1100 nM
"CC1=C(C(=O)OCCN2CCN(c3ncccn3)CC2)C(c2cccn2C)C([N+](=O)[O-])=C(C)N1 (stereo not drawn) [Example 78, 1,4-Dihydro-2,6-dimethyl-4-(1-methyl-1H-pyrrol-2-yl)-5-nitro-3-pyridinecarboxylic acid, {2-[4-(2-pyrimidinyl)-1-piperazinyl]ethyl} ester]",,,,580 nM,231%,3300 nM,1700 nM
